In patent US5710153A, “Tetrazole compound” (Ono Phramaceutical Co., Ltd., priority 1995, dated 1998):

Target: T1, human ICE (Homo sapiens, UniProt P29466)
T1 sequence (P29466 120-297 limits assumed): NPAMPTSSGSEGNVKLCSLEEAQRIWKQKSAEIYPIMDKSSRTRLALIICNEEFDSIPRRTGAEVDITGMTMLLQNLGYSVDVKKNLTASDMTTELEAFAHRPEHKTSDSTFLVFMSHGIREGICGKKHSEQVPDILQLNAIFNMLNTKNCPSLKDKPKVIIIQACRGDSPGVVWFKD
T1 sequence (P29466 317-404 limits assumed): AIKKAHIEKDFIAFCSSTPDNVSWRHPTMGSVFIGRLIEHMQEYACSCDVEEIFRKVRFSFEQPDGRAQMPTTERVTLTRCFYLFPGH
Assay: Assay for IL-1β converting enzyme
Assay type: biochemical
Conditions: human ICE solution, substrate Ac-Tyr-Val-Ala-Asp-MCA, 37° C., fluorescence
Method: (1) Assay for IL-1β converting enzyme
The reaction mixture contains, for example, 20 mM of HEPES-NaOH pH7.4, 10 mM of KOH, 1.5 mM of MgCl2, 0.1 mM of EDTA and 10% glycerol. Various concentrations of test compounds (50 μl), human ICE solution (50 μl) and various concentrations of substrate (Ac-Tyr-VaI-Ala-Asp-MCA) were mixed and incubated at 37° C. Fluorescence intensity was measured at […].
In the aboved example method,
HEPES is 4-(2-Hydroxyethyl)-1-piperazineethane-sulfonic acid,
EDTA is Ethylenediamine tetraacetate, and
Ac-Tyr-Val-Ala-Asp-MCA is Acetyl-L-tyrosyl-L-valyl-L-alanyl-L-asparaginic acid 4-methyl-coumarinyl-7-amide.

- IC50: 0.03 µM
SMILES: CC(C)[C@H](NC(=O)CCc1ccccc1)C(=O)N[C@@H](C)C(=O)NC(CC(=O)O)C(=O)Cn1nnc(-c2c(Cl)cccc2Cl)n1 (stereo partly drawn) [Example 2(1), N-((N-(3-phenylpropionyl)-L-valyl)-L-alanyl)-3-amino-4-oxo-5-(5-(2,6-dichlorophenyl)tetrazol-2-yl)pentanoic acid]
